Measurements as given in PMC11859928, “Design, Synthesis, and Antiproliferative Activity of Novel Indole/1,2,4-Triazole Hybrids as Tubulin Polymerization Inhibitors” (Pharmaceuticals, 2025).

Key:
Assay in all cases: NCI one-dose assay
Format in all cases: cell-based
SW-620 = details: Homo sapiens, SW-620, Colon cancer, read-out: Cell growth inhibition %
Procedure: (§1) The National Cancer Institute (NCI), Bethesda, USA, selected the final compounds 6a–j and 7a–j for in vitro anticancer screening. An initial in vitro single-dose anticancer experiment was performed with the entire NCI 60 cell lines derived from nine tumor subpanel cancer cell lines. The results for each compound were illustrated as a mean graph showing the percentage growth of treated cells compared to untreated control cells (see Supplementary Materials).
(§2) The NCI anticancer screening process has been thoroughly detailed. The Drug Evaluation Branch of the National Cancer Institute in Bethesda, […], USA, established the procedure and conducted the anticancer assay on 60 human tumor cell lines from nine neoplastic cancers.

K-562 = details: Homo sapiens, K562, K-562, Leukemia, read-out: Cell growth inhibition %
Procedure: as §1, §2

MDA-MB-231/ATCC = details: Homo sapiens, Breast cancer, read-out: Cell growth inhibition %
Procedure: as §1, §2

EKVX = details: Homo sapiens, Non-small cell lung cancer, read-out: Cell growth inhibition %
Procedure: as §1, §2

NCI-H522 = details: Homo sapiens, NCI-H522, Non-small cell lung cancer, read-out: Cell growth inhibition %
Procedure: as §1, §2

KM12 = details: Homo sapiens, KM12, Colon cancer, read-out: Cell growth inhibition %
Procedure: as §1, §2

SNB-19 = details: Homo sapiens, SNB-19, CNS cancer, read-out: Cell growth inhibition %
Procedure: as §1, §2

SK-MEL-28 = details: Homo sapiens, SK-MEL-28, Melanoma, read-out: Cell growth inhibition %
Procedure: as §1, §2

HL-60(TB) = details: Homo sapiens, Leukemia, read-out: Cell growth inhibition %
Procedure: as §1, §2

DU-145 = details: Homo sapiens, DU-145, Prostate cancer, read-out: Cell growth inhibition %
Procedure: as §1, §2

HS 578 T = details: Homo sapiens, Breast cancer, read-out: Cell growth inhibition %
Procedure: as §1, §2

SF-295 = details: Homo sapiens, SF-295, CNS cancer, read-out: Cell growth inhibition %
Procedure: as §1, §2

CAKI-1 = details: Homo sapiens, CAKI-1, Renal cancer, read-out: Cell growth inhibition %
Procedure: as §1, §2

A549/ATCC = details: Homo sapiens, Non-small cell lung cancer, read-out: Cell growth inhibition %
Procedure: as §1, §2

CCRF-CEM = details: Homo sapiens, Leukemia, read-out: Cell growth inhibition %
Procedure: as §1, §2

SK-MEL-2 = details: Homo sapiens, SK-MEL-2, Melanoma, read-out: Cell growth inhibition %
Procedure: as §1, §2

T-47D = details: Homo sapiens, T47D, Breast cancer, read-out: Cell growth inhibition %
Procedure: as §1, §2

MDA-MB-468 = details: Homo sapiens, MDA-MB-468, Breast cancer, read-out: Cell growth inhibition %
Procedure: as §1, §2

BT-549 = details: Homo sapiens, BT-549, Breast cancer, read-out: Cell growth inhibition %
Procedure: as §1, §2

SF-268 = details: Homo sapiens, SF-268, CNS cancer, read-out: Cell growth inhibition %
Procedure: as §1, §2

SK-OV-3 = details: Homo sapiens, SK-OV-3, Ovarian cancer, read-out: Cell growth inhibition %
Procedure: as §1, §2

SR = details: Homo sapiens, Leukemia, read-out: Cell growth inhibition %
Procedure: as §1, §2

MCF7 = details: Homo sapiens, MCF7, Breast cancer, read-out: Cell growth inhibition %
Procedure: as §1, §2

ACHN = details: Homo sapiens, Renal cancer, read-out: Cell growth inhibition %
Procedure: as §1, §2

OVCAR-3 = details: Homo sapiens, OVCAR-3, Ovarian cancer, read-out: Cell growth inhibition %
Procedure: as §1, §2

NCI-H322M = details: Homo sapiens, Non-small cell lung cancer, read-out: Cell growth inhibition %
Procedure: as §1, §2

HCC-2998 = details: Homo sapiens, HCC-2998, Colon cancer, read-out: Cell growth inhibition %
Procedure: as §1, §2

HT29 = details: Homo sapiens, HT-29, HT29, Colon cancer, read-out: Cell growth inhibition %
Procedure: as §1, §2

MOLT-4 = details: Homo sapiens, MOLT-4, Leukemia, read-out: Cell growth inhibition %
Procedure: as §1, §2

HCT-116 = details: Homo sapiens, HCT-116, Colon cancer, read-out: Cell growth inhibition %
Procedure: as §1, §2

HOP-62 = details: Homo sapiens, HOP-62, Non-small cell lung cancer, read-out: Cell growth inhibition %
Procedure: as §1, §2

OVCAR-4 = details: Homo sapiens, OVCAR-4, Ovarian cancer, read-out: Cell growth inhibition %
Procedure: as §1, §2

SN12C = details: Homo sapiens, Renal cancer, read-out: Cell growth inhibition %
Procedure: as §1, §2

UACC-257 = details: Homo sapiens, UACC-257, Melanoma, read-out: Cell growth inhibition %
Procedure: as §1, §2

HCT-15 = details: Homo sapiens, HCT-15, Colon cancer, read-out: Cell growth inhibition %
Procedure: as §1, §2

M14 = details: Homo sapiens, M14, Melanoma, read-out: Cell growth inhibition %
Procedure: as §1, §2

COLO 205 = details: Homo sapiens, COLO 205, Colon cancer, read-out: Cell growth inhibition %
Procedure: as §1, §2

## O/N=C(\CSc1nnc(-c2c[nH]c3ccccc23)n1-c1ccccc1)c1ccc(Br)cc1 [Compound 7i, (Z)-2-((5-(1H-Indol-3-yl)-4-phenyl-4H-1,2,4-triazol-3-yl)thio)-1-(4-bromophenyl) Ethanone Oxime]
SW-620
  inhibition at 10 µM: 186%
K-562
  inhibition at 10 µM: 111%
MDA-MB-231/ATCC
  inhibition at 10 µM: 184%
EKVX
  inhibition at 10 µM: 163%
NCI-H522
  inhibition at 10 µM: 130%
KM12
  inhibition at 10 µM: 97.9%
SNB-19
  inhibition at 10 µM: 109%
SK-MEL-28
  inhibition at 10 µM: 126%
HL-60(TB)
  inhibition at 10 µM: 136%
DU-145
  inhibition at 10 µM: 188%
HS 578 T
  inhibition at 10 µM: 139%
SF-295
  inhibition at 10 µM: 115%
CAKI-1
  inhibition at 10 µM: 194%
A549/ATCC
  inhibition at 10 µM: 118%
CCRF-CEM
  inhibition at 10 µM: 106%
SK-MEL-2
  inhibition at 10 µM: 166%
T-47D
  inhibition at 10 µM: 94%
MDA-MB-468
  inhibition at 10 µM: 195%
BT-549
  inhibition at 10 µM: 173%
SF-268
  inhibition at 10 µM: 156%
SK-OV-3
  inhibition at 10 µM: 150%
SR
  inhibition at 10 µM: 98.7%
MCF7
  inhibition at 10 µM: 143%
ACHN
  inhibition at 10 µM: 184%
OVCAR-3
  inhibition at 10 µM: 99.3%
NCI-H322M
  inhibition at 10 µM: 173%
HCC-2998
  inhibition at 10 µM: 166%
HT29
  inhibition at 10 µM: 177%
MOLT-4
  inhibition at 10 µM: 119%
HCT-116
  inhibition at 10 µM: 136%
HOP-62
  inhibition at 10 µM: 155%
OVCAR-4
  inhibition at 10 µM: 183%
SN12C
  inhibition at 10 µM: 177%
UACC-257
  inhibition at 10 µM: 109%
HCT-15
  inhibition at 10 µM: 193%
M14
  inhibition at 10 µM: 168%
COLO 205
  inhibition at 10 µM: 141%

## COc1ccc(/C(CSc2nnc(-c3c[nH]c4ccccc34)n2-c2ccccc2)=N/O)cc1 [Compound 7g, (Z)-2-((5-(1H-Indol-3-yl)-4-phenyl-4H-1,2,4-triazol-3-yl)thio)-1-(4-methoxyphenyl) Ethanone Oxime]
SW-620
  inhibition at 10 µM: 60.6%
K-562
  inhibition at 10 µM: 81.2%
MDA-MB-231/ATCC
  inhibition at 10 µM: 39.3%
EKVX
  inhibition at 10 µM: 84.9%
NCI-H522
  inhibition at 10 µM: 63.5%
KM12
  inhibition at 10 µM: 78.8%
SNB-19
  inhibition at 10 µM: 59.7%
SK-MEL-28
  inhibition at 10 µM: 62.6%
HL-60(TB)
  inhibition at 10 µM: 96.1%
DU-145
  inhibition at 10 µM: 57%
HS 578 T
  inhibition at 10 µM: 61.2%
SF-295
  inhibition at 10 µM: 79%
CAKI-1
  inhibition at 10 µM: 79.9%
A549/ATCC
  inhibition at 10 µM: 65.8%
CCRF-CEM
  inhibition at 10 µM: 83.5%
SK-MEL-2
  inhibition at 10 µM: 94.1%
T-47D
  inhibition at 10 µM: 89.7%
MDA-MB-468
  inhibition at 10 µM: 99.4%
BT-549
  inhibition at 10 µM: 83.5%
SF-268
  inhibition at 10 µM: 51.5%
SK-OV-3
  inhibition at 10 µM: 47.9%
SR
  inhibition at 10 µM: 89.1%
MCF7
  inhibition at 10 µM: 85.5%
ACHN
  inhibition at 10 µM: 77.7%
OVCAR-3
  inhibition at 10 µM: 69.5%
NCI-H322M
  inhibition at 10 µM: 63.6%
HCC-2998
  inhibition at 10 µM: 57.6%
HT29
  inhibition at 10 µM: 68%
MOLT-4
  inhibition at 10 µM: 83.3%
HCT-116
  inhibition at 10 µM: 71.9%
HOP-62
  inhibition at 10 µM: 55%
OVCAR-4
  inhibition at 10 µM: 83.2%
SN12C
  inhibition at 10 µM: 54.2%
UACC-257
  inhibition at 10 µM: 49.9%
HCT-15
  inhibition at 10 µM: 84.7%
M14
  inhibition at 10 µM: 71.1%
COLO 205
  inhibition at 10 µM: 63.7%
